pIC50: −log10 of the molar value.
System: 171881-019-R-J1-PDC tumor spheroid viability
Assay: Anticancer human tumor 171881-019-R-J1-PDC patient-derived invasive breast carcinoma cell line growth inhibition [PI3K]
Conditions: spheroids with HUVEC and MSC; for pIC50: curve of first compound; for viability, T/C: stronger effect = lower value
Outline: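 Complex 3D spheroids (cancer cells + endothelial HUVEC + mesenchymal stem cells); drug pairs of targeted agent x inavolisib/alpelisib/duvelisib/copanlisib; half-log series from ~Cmax, max 10 microM if Cmax unknown; endpoint viability.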

[1] = second compound 0.0316 µM, first compound 0.0316 µM
[2] = second compound 0.0316 µM, first compound 0.1 µM
[3] = second compound 0.0316 µM, first compound 0.316 µM
[4] = second compound 0.0316 µM, first compound 1 µM
[5] = second compound 0.1 µM, first compound 0.0316 µM
[6] = second compound 0.1 µM, first compound 0.1 µM
[7] = second compound 0.1 µM, first compound 0.316 µM
[8] = second compound 0.1 µM, first compound 1 µM
[9] = second compound 0.316 µM, first compound 0.0316 µM
[10] = second compound 0.316 µM, first compound 0.1 µM
[11] = second compound 0.316 µM, first compound 0.316 µM
[12] = second compound 0.316 µM, first compound 1 µM
[13] = second compound 1 µM, first compound 0.0316 µM
[14] = second compound 1 µM, first compound 0.1 µM
[15] = second compound 1 µM, first compound 0.316 µM
[16] = second compound 1 µM, first compound 1 µM
[17] = second compound 3.16 µM, first compound 0.0316 µM
[18] = second compound 3.16 µM, first compound 0.1 µM
[19] = second compound 3.16 µM, first compound 0.316 µM
[20] = second compound 3.16 µM, first compound 1 µM
[21] = second compound 10 µM, first compound 0.0316 µM
[22] = second compound 10 µM, first compound 0.1 µM
[23] = second compound 10 µM, first compound 0.316 µM
[24] = second compound 10 µM, first compound 1 µM
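Further: spheroids exposed to compound for 7 days before viability read.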
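Wherever viability, T/C is given: 100% = DMSO vehicle-treated spheroids.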

`CC(C)NCC(C(=O)N1CCN(c2ncnc3c2C(C)CC3O)CC1)c1ccc(Cl)cc1` (centres undefined) + CC(Nc1ncnc2nc[nH]c12)c1cc2cccc(Cl)c2c(=O)n1-c1ccccc1 showed a pIC50 (second compound 0.0316 µM) of 6.41, a pIC50 (second compound 0.1 µM) of 6.53 and a pIC50 (second compound 0.316 µM) of 6.41. For the same compound, the pIC50 (second compound 1 µM) was 6.40, the pIC50 (second compound 3.16 µM) was 6.45 and the pIC50 (second compound 10 µM) was 6.82. The viability, T/C [1] was 96.1%, the viability, T/C [2] was 83.8% and the viability, T/C [3] was 54.5%. It also gave a viability, T/C [4] of 27.6%, a viability, T/C (second compound 0.0316 µM, first compound 3.16 µM) of 14.6% and a viability, T/C (second compound 0.0316 µM, first compound 10 µM) of 11.4%. The viability, T/C [5] was 97.6%, the viability, T/C [6] was 73.1% and the viability, T/C [7] was 48.4%. It also gave a viability, T/C [8] of 29.4%, a viability, T/C (second compound 0.1 µM, first compound 3.16 µM) of 14.6% and a viability, T/C (second compound 0.1 µM, first compound 10 µM) of 10.1%. It also gave a viability, T/C [9] of 80%, a viability, T/C [10] of 82.8% and a viability, T/C [11] of 50.9%. It also gave a viability, T/C [12] of 30%, a viability, T/C (second compound 0.316 µM, first compound 3.16 µM) of 14.4% and a viability, T/C (second compound 0.316 µM, first compound 10 µM) of 9.02%. It also gave a viability, T/C [13] of 93.2%, a viability, T/C [14] of 81% and a viability, T/C [15] of 55.9%. For the same compound, the viability, T/C [16] was 28%, the viability, T/C (second compound 1 µM, first compound 3.16 µM) was 12.5% and the viability, T/C (second compound 1 µM, first compound 10 µM) was 8.65%. For the same compound, the viability, T/C [17] was 78.6%, the viability, T/C [18] was 75.1% and the viability, T/C [19] was 51.2%. For the same compound, the viability, T/C [20] was 27.1%, the viability, T/C (second compound 3.16 µM, first compound 3.16 µM) was 11.5% and the viability, T/C (second compound 3.16 µM, first compound 10 µM) was 8.08%. For the same compound, the viability, T/C [21] was 57%, the viability, T/C [22] was 53.6% and the viability, T/C [23] was 43%. It also gave a viability, T/C [24] of 21.6%, a viability, T/C (second compound 10 µM, first compound 3.16 µM) of 9.56% and a viability, T/C (second compound 10 µM, first compound 10 µM) of 5.96%.
`CCN1CCN(Cc2ccc(Nc3ncc(F)c(-c4cc(F)c5nc(C)n(C(C)C)c5c4)n3)nc2)CC1` + CC(Nc1ncnc2nc[nH]c12)c1cc2cccc(Cl)c2c(=O)n1-c1ccccc1 gave a pIC50 (second compound 0.0316 µM) of under 6.00, a pIC50 (second compound 0.1 µM) of under 6.00 and a pIC50 (second compound 0.316 µM) of under 6.00. For the same compound, the pIC50 (second compound 1 µM) was under 6.00, the pIC50 (second compound 3.16 µM) was under 6.00 and the pIC50 (second compound 10 µM) was under 6.00. For the same compound, the viability, T/C (second compound 0.0316 µM, first compound 0.00316 µM) was 96.4%, the viability, T/C (second compound 0.0316 µM, first compound 0.01 µM) was 98.5% and the viability, T/C [1] was 103%. The viability, T/C [2] was 98%, the viability, T/C [3] was 122% and the viability, T/C [4] was 117%. For the same compound, the viability, T/C (second compound 0.1 µM, first compound 0.00316 µM) was 99%, the viability, T/C (second compound 0.1 µM, first compound 0.01 µM) was 95.5% and the viability, T/C [5] was 99.8%. The viability, T/C [6] was 110%, the viability, T/C [7] was 113% and the viability, T/C [8] was 118%. The viability, T/C (second compound 0.316 µM, first compound 0.00316 µM) was 95.4%, the viability, T/C (second compound 0.316 µM, first compound 0.01 µM) was 103% and the viability, T/C [9] was 103%. It also gave a viability, T/C [10] of 105%, a viability, T/C [11] of 111% and a viability, T/C [12] of 116%. For the same compound, the viability, T/C (second compound 1 µM, first compound 0.00316 µM) was 92.7%, the viability, T/C (second compound 1 µM, first compound 0.01 µM) was 98.4% and the viability, T/C [13] was 97.5%. The viability, T/C [14] was 108%, the viability, T/C [15] was 114% and the viability, T/C [16] was 114%. For the same compound, the viability, T/C (second compound 3.16 µM, first compound 0.00316 µM) was 95.5%, the viability, T/C (second compound 3.16 µM, first compound 0.01 µM) was 94.8% and the viability, T/C [17] was 72.9%. The viability, T/C [18] was 98.6%, the viability, T/C [19] was 104% and the viability, T/C [20] was 101%. For the same compound, the viability, T/C (second compound 10 µM, first compound 0.00316 µM) was 67.5%, the viability, T/C (second compound 10 µM, first compound 0.01 µM) was 61% and the viability, T/C [21] was 69.5%. For the same compound, the viability, T/C [22] was 72.5%, the viability, T/C [23] was 80.8% and the viability, T/C [24] was 84.3%.

— PubChem BioAssay AID1963986 (Molecular Pharmacology Branch, DTP, NCI, 2024)
